Measurements published in US5086054A, “Novel arylcycloalkanepolyalkylamines” (SRI International, priority 1990, dated 1992).
“Also recorded” adds a separate entry of the source. Where two headings read alike, the source gives them in different places.

Legend:
σ receptors = details: literature; cited from earlier work
5-HT2 = 5-HT2 (Cavia porcellus, UniProt A0A286Y537); assay: 5-HT2 receptor binding; set-up: species or system guinea-pig
From the text: (§1) This example illustrates the testing of compounds of this invention in dopamine D2, 5-HT2, muscarinic acetylcholine, α1 -adrenoceptor and β-adrenoceptor receptor assays. The receptor assay methods are described in Eur. J. Pharmacol., 155:345 (1988) except that in the β-adrenoceptor assay, [^125 I]-pindolol was used instead of [^3 H] dihydroalprenolol.
(§2) In this study, guinea-pig brains were used for binding studies. Homogenization and centrifugation procedures for preparation of brain membranes for each receptor assay were the same as described in Example 4 for the σ and PCP receptors. However, brain regions, tissue contents, and buffers may differ depending on the assay. Conditions of binding assays for various receptors were as follows:
(§3) Filtration and washing conditions were the same as described above for the σ receptor assay. Nonspecific binding for each receptor was defined by the inclusion of 1 μM haloperidol for dopamine D2, 1 μM haloperidol for 5-HT2, 10 μM scopolamine for muscarinic acetylcholine, 10 μM prazosin for α1 -adrenoceptor, and 0.2 μM 1-propranolol for β-adrenoceptor. Retained radioactivity was measured by liquid scintillation spectrometry except for ^125 I-pindolol which was measured by the LKB gamma counter.
(§4) Programs in Biomed. 17:107 (1983)].

PCP RECEPTOR = assay: PCP receptor binding assay ([3H]-TCP displacement, brain membranes); set-up: species or system guinea-pig (male Hartley)
Protocol: (§5) This example illustrates testing of compounds in receptor binding assays.
(§6) Frozen brains from male Hartley guinea-pigs were obtained from Pel-Freeze (Rogers, Arkansas).
(§7) The brains plus cerebella were homogenized in 10 volumes (v/w) of 0.1M, pH 7.4, ice-cold Tris-HCl buffer with a Brinkmann polytron at setting 4 for 20 seconds. The homogenates were centrifuged at 20,000×g for 20 minutes at 4° C. The pellets were suspended in 10 volumes of ice-cold water and, after sitting on ice for 10 minutes, were centrifuged 30 minutes at 20,000×g at 4° C. The resulting pellets were resuspended in the above Tris buffer in ratio 1:100 (w/v) for σ receptor assays or in 5 mM Tris-HCl having pH 7.4, for PCP receptor assays. The final suspension was homogenized with a dounce glass-glass tissue grinder Wheaton "200", at small clearance (B), with three strokes before use. Two milliter aliquots of the brain membrane preparation, containing 1.7 mg of protein, were incubated in quadruplicate for one hour at 23° C. with competing mixture of ligand and radioligand. For σ receptors, [^3 H]-d-SKF-10,047, 2 nM was used. For PCP receptors, [^3 H] TCP [^3 H]-1-[1-(2-thienyl)cyclohexyl]piperidine), 1 nM was used. The nonspecific bindings were defined by 0.1 mM d-SKF-10,047 and 0.1 mM phencyclidine respectively for σ and PCP receptors. After incubation, free ligand was separated from bound ligand by rapid filtration through Whatman GF/C filters. The filters had been soaked before use in isoamyl alcohol-saturated water to prevent nonspecific [^3 H]-d-SKF-10,047 binding to the filter. In the PCP receptor assay, the filter was soaked in 0.5% polyethylenimine to reduce the filter binding of [^3 H]-TCP. After filtration, the trapped tissue was washed three times with 4 ml aliquots of 0.1 M ice-cold Tris buffer at pH 7.4 for σ receptors and 5 mM, ice-cold Tris buffer pH 7.4 for PCP receptors. The filters were transferred to 5 ml of liquid scintillation fluid and the retained radioactivity was measured by liquid scintillation spectrometry.
as §4

DOPAMINE D2 = molecular target: T1, DOPAMINE D2 (Cavia porcellus, UniProt H0VE83); assay: Dopamine D2 receptor binding ([3H]-spiroperidol); set-up: species or system guinea-pig
T1 construct: printed as cerebral cortical tissue, [3H]spiroperidol, haloperidol blank
From the text: as §1, §2
For dopamine D2 assay, 3 H-spiroperidol (0.15 nM) was incubated in a 2 ml assay (50 mM Tris-HCl, pH 7.4) for 2 hours at 23° C. with membranes from 12 mg of cerebral cortical tissue.
as §3, §4

α1 -ADRENOCEPTOR = assay: α1-adrenoceptor binding ([3H]-prazosin); set-up: species or system guinea-pig; details: Table 4; IC50 and nM only stated in text; read-out: α1 -ADRENOCEPTOR
From the text: as §1, §2
For α1 -adrenoceptor assay, [^3 H]-prazosin (0.4 nM) was incubated in a 1 ml assay (50 mM Tris-HCl, pH 7.4) for 1 hour at 23° C. with membranes from 1 mg of whole brain minus cerebellum.
as §3, §4

β-ADRENOCEPTOR = assay: β-adrenoceptor binding ([125I]-pindolol); set-up: species or system guinea-pig; details: Table 4; IC50 and nM only stated in text; read-out: β-ADRENOCEPTOR
From the text: as §1, §2
For β-adrenoceptor, [^125 I]-pindolol (0.05 nM) was incubated in a 1 ml assay (50 mM Tris-HCl, pH 7.4) for 1 hr at 23° C. with membranes from 1 mg of whole brain minus cerebellum.
as §3, §4

MUSCARINIC ACETYLCHOLINE = type: binding, guinea-pig
From the text: as §1, §2
For muscarinic acetylcholine assay, […]) [^3 H]-quinuclidinyl benzylate ([^3 H]-QNB) was incubated in a 2 ml assay (50 mM Tris-HCl, pH 7.4) for 2 hours at 23° C. with membranes from 2 mg of whole brain minus cerebellum.
as §3, §4

SIGMA RECEPTOR = molecular target: T2, SIGMA RECEPTOR (Cavia porcellus, UniProt Q60492); assay: Sigma receptor binding assay ([3H]-d-SKF-10,047 displacement, brain membranes); set-up: species or system guinea-pig (male Hartley)
T2 construct: Two milliter aliquots of the brain membrane preparation, containing 1.7 mg of protein; tissue Pel-Freeze (Rogers, Arkansas); host or cells: guinea-pig brains plus cerebella, membranes
Protocol: as §5, §6, §7

[1] = Table 1, mean ± error (n), read-out: PCP RECEPTOR IC50
[2] = Table 1, slope of dose response curve

T2 sequence (Q60492 whole entry): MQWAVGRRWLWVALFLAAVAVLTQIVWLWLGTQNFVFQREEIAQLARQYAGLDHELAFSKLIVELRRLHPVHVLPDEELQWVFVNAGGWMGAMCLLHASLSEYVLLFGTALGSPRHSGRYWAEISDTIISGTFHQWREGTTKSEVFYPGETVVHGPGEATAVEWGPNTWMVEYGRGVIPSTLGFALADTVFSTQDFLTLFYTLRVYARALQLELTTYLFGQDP
Chain of 5-HT2 (A0A286Y537 1-470): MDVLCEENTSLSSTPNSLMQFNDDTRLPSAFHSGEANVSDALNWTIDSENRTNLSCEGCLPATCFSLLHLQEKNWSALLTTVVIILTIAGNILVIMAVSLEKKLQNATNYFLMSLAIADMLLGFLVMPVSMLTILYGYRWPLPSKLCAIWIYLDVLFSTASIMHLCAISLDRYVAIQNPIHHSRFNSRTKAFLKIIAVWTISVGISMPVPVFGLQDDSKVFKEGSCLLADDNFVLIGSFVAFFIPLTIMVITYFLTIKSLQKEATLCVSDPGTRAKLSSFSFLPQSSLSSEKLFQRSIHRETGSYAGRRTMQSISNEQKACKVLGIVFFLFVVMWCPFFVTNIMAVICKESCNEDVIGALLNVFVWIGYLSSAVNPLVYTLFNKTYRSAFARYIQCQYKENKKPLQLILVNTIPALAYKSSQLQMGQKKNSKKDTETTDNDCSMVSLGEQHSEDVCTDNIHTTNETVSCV
T1 sequence (H0VE83 entry or part of it): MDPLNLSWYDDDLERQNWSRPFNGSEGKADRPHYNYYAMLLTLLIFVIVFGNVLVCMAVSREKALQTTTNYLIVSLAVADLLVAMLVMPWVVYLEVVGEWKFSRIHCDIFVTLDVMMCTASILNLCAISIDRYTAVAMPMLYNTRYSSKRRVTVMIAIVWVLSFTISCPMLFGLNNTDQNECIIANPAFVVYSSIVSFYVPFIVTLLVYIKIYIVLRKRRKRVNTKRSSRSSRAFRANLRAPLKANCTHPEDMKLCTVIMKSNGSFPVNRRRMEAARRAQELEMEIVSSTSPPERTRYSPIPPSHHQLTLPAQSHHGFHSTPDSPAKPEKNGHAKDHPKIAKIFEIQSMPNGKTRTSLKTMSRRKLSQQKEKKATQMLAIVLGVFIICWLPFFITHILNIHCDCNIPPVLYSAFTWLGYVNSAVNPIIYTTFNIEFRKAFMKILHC

SMILES: C=CCN1CCC2(C)c3cc(O)ccc3CC1C2C (centres unmarked) [N-allylnormetazocine]
- affinity / binding at σ receptors (in words) (σ receptors): bind to σ receptors

SMILES: CCCN1CCC[C@H](c2cccc(O)c2)C1 [(+)-3-PPP, (+)-3-(3-hydroxyphenyl)-N-(1-propyl)piperidine]
- affinity / binding at σ receptors (in words) (σ receptors): bind to σ receptors

SMILES: CCN(CC)CCOC(=O)C1(c2ccccc2)CCCCC1.Cl [Compound 15, 2-(Diethylamino)ethyl 1-phenylcyclohexane-1-carboxylate hydrochloride]
- potency at 5-HT2 receptors (in words) (5-HT2): moderate potencies at dopamine D-2 and 5-HT2 receptors
- IC50 (5-HT2; Table 4, IC50 and nM only stated in text, read-out: 5-HT2): 2180 nM
- IC50 (PCP RECEPTOR; [1]): 40900 nM
- IC50 (PCP RECEPTOR; Table 4, IC50 and nM only stated in text, read-out: PCP): 40900 nM
- potency at PCP receptors (in words) (PCP RECEPTOR; hydrochloride): inactive in the PCP assay; also recorded: very weak or inactive in the PCP assay; also recorded: negligible; also recorded: low potency at PCP receptors
- potency at dopamine D-2 receptors (in words) (DOPAMINE D2): moderate potencies at dopamine D-2 and 5-HT2 receptors
- IC50 (α1 -ADRENOCEPTOR): 30100 nM
- IC50 (β-ADRENOCEPTOR): 81900 nM
- potency at muscarinic acetylcholine receptors (in words) (MUSCARINIC ACETYLCHOLINE): quite potent at muscarinic acetylcholine receptors
- IC50 (MUSCARINIC ACETYLCHOLINE; Table 4, IC50 and nM only stated in text, read-out: MUSCARINIC ACETYLCHOLINE): 189 ± 35 nM
- IC50 (MUSCARINIC ACETYLCHOLINE; read-out: potency (IC50) at muscarinic acetylcholine receptor): 189 nM
- SIGMA RECEPTOR SLOPE (SIGMA RECEPTOR; [2]): 0.66 ± 0.16
- IC50 (SIGMA RECEPTOR; Table 4, IC50 and nM only stated in text, read-out: SIGMA): 30 ± 5 nM
- potency at σ receptors (in words) (SIGMA RECEPTOR; hydrochloride): σ receptor potency increased; also recorded: very potent in the σ assay; also recorded: very high
- IC50 (SIGMA RECEPTOR; read-out: IC50 at σ receptors): < 100 nM

SMILES: CC(C)=CCN1CCC2(C)c3cc(O)ccc3CC1C2C (centres unmarked) [pentazocine, 2-dimethylallyl-5,9-dimethyl-2-hydroxy-benzomorphan]
- affinity / binding at σ receptors (in words) (σ receptors): bind to σ receptors

SMILES: C=CCN1CC[C@@]23CCCC[C@@H]2[C@@H]1Cc1ccc(O)cc13 [dextrallorphan]
- affinity / binding at σ receptors (in words) (σ receptors): bind to σ receptors

SMILES: CC1C2Cc3ccc(O)cc3C1(C)CCN2CC1CC1 (centres unmarked) [cyclazocine, 3-(cyclopropylmethyl)-1,2,3,4,5,6-hexahydro-6,11-dimethyl-2,6-methano-3-benzazocin-8-ol]
- affinity / binding at σ receptors (in words) (σ receptors): bind to σ receptors

SMILES: CCN(CC)C1(c2ccccc2)CCCCC1 [Compound 13, N,N-diethyl-1-phenylcyclohexylamine, reference compound]
- IC50 (PCP RECEPTOR; [1]): 331 ± 34 nM
- IC50 (SIGMA RECEPTOR; SIGMA RECEPTOR IC50, Table 1, mean ± error (n)): 573 nM
- SIGMA RECEPTOR SLOPE (SIGMA RECEPTOR; [2]): 0.40 ± 0.07

SMILES: O=[N+]([O-])c1ccc(C2(CN3CCCC3)CCCCC2)cc1 [Compound 31]
- potency at PCP receptors (in words) (PCP RECEPTOR): inactive at PCP sites
- IC50 (PCP RECEPTOR; Table 2, aryl ring substituents, read-out: PCP RECEPTOR IC50): > 25000 nM
- potency at σ receptors (in words) (SIGMA RECEPTOR): somewhat potent
- selectivity for σ receptors (in words) (SIGMA RECEPTOR): very selective for σ receptors
- SIGMA RECEPTOR SLOPE (SIGMA RECEPTOR; Table 2): 0.65 ± 0.05
- IC50 (SIGMA RECEPTOR; Table 2, aryl ring substituents, read-out: SIGMA RECEPTOR IC50): 282 nM
